Here are results for one compound from US20230310559A1, “Use of Amylase or Maltose to Treat or Prevent Neurodegeneration” (St. Jude Children's Research Hospital, Inc., priority 2020, published 2023).

Format in all cases: cell-based
Experiment [1] deals with human cortical brain organoids. Put plainly: Whole-mount immunostaining of human cortical brain organoids (p62, poly-ubiquitin). The method, then: Whole-Mount Immunostaining of Human Cortical Brain Organoids. Similar to the above-referenced procedures described for Drosophila tissues, human cortical brain organoids were immunostained with the following modifications: fixation and washes were done with 0.4% TRITON⋅ X-100; fixation was carried out for 50 minutes at room temperature; and organoids were blocked for >1 hour with PBS with 0.4% TRITON X-100 and 5% bovine serum albumin (BSA) before incubation with primary antibodies.
(§1) Drug Treatment of Human Cortical Brain Organoids. An additional 0.5 mL of culture medium was added to reach the final amount of 1 mL with 0, 3, 5, 10, 20, 40, or 80 mg of maltose per mL, or with 10, 20, 40 μL of porcine alpha-Amylase (MP Biomedicals) per mL, as indicated. After culturing at 37° C. for 3 days, the organoids were kept for 7 hours at 41.5° C. for heat shock, or at 37° C. (control). Subsequently, the organoids were collected and snap frozen. The organoids were then processed as described above for the western blot analysis of detergent-soluble and detergent-insoluble fractions.
Whole-mount immunostaining of organoids was carried out following similar procedures as described above for Drosophila brains and retinas, with anti-poly-ubiquitin (FK2; Enzo Life Sciences) and anti-p62/SQSTM1 antibodies (Cell Signaling Technologies). […]

The test system of experiment [2] is human cortical brain organoids. Kind of experiment: RNA-sequencing of human cortical brain organoids. The protocol:
RNA-Sequencing of Human Cortical Brain Organoids. RNA sequencing libraries for each sample were prepared with 1 μg total RNA using the Illumina TRUSEQ® RNA Sample Prep v2 Kit per the manufacturer's instructions, and sequencing was completed on the Illumina HiSeq 2000. The 100 bp paired-end reads were trimmed, filtered against quality (Phred-like Q20 or greater) and length (50 bp or longer), and aligned to a human reference sequence GRCh38 (UCSC hg38), using CLC Genomics Workbench v12.0.1 (Qiagen). For gene expression comparisons, the TPM (transcript per million) counts were obtained from the RNA-Seq Analysis tool. A total of 19749 genes with TPM greater than one in at least one sample were in the principal component analysis (PCA) and the gene expression analysis was performed using the non-parametric ANOVA using the Kruskal-Wallis and Dunn's tests on log-transformed TPM counts between three replicates of each experimental group, implemented in Partek Genomics Suite v7.0 software (Partek Inc.).
as §1

Experiment [3] relates to human cortical brain organoids. Put plainly: Multielectrode array recording of human cortical brain organoids. The protocol:
Multielectrode Array Recording of Human Cortical Brain Organoids. Spontaneous neuronal activity of cortical organoids was recorded on the Axion Maestro Edge multielectrode array system. Two different methods for plating and recording were optimized from two-month old and three-month old organoids, to ensure maximum contact with electrodes. Method 1 (Two-month old cortical organoids; Maltose treatment): Growth factor reduced-cell culture matrix sold under the tradename […]® (Corning) was diluted 1:3 in chilled media containing BrainPhys and 10% ES-FBS and kept on ice. D60 cortical organoids were first sliced in half using a pair of fine tweezers. Each half was then plated onto one well of a 24-well Cytoview plate (Axion Biosystems), where each well contained a grid of 16 electrodes. After placing the organoid slice onto a dry and empty well using a sterile flat spatula, 15 μL of the chilled and diluted cell culture matrix sold under the tradename […]® was added onto the slice. A P10 tip was used to position the slice to the center of the well over the grid of electrodes. Three such plates were prepared. The plates were incubated at 37° C. for 3 hours for the cell culture matrix to solidify over the organoid slices. After 3 hours, 500 μL of BrainPhys media supplemented with 100× N2 supplement, 50× B27 supplement without Vitamin A, 10 ng/ml BDNF and 10 ng/ml GDNF were added slowly to each well. Every three days, 300 μL media in each well was replaced with fresh media three days and six days after plating. Seven days after plating, the plates were treated with either control or maltose containing media; all treatment conditions were included in each of the four plates. Three days after treatment, spontaneous activity was recorded from each plate. The plates were then subjected to heat shock for 7 hours at 41.5° C. Spontaneous activity in each plate was recorded again after the heat shock. This recording was repeated after 17 hours of recovery and after 43 hours of recovery. Data was analyzed using the Neural Metric tool (Axion Biosystems).

[4] abbreviates: after heat shock, compared to control-treated organoids.

“Also recorded” adds a separate entry of the source.

On to `OC[C@H]1O[C@H](O[C@H]2[C@H](O)[C@@H](O)C(O)O[C@@H]2CO)[C@H](O)[C@@H](O)[C@@H]1O` (mixture of isomers) [maltose], for which the “p62 and ubiquitin immunoreactivity” value in experiment [1] (heat-shocked organoids, compared to controls) is recorded as “significantly decreased”. In addition, the “levels of p62 and poly-ubiquitinated proteins (immunostaining)” value in experiment [1] (organoids, control conditions (no heat shock)) is reported as “no change”. Further, in experiment [2] (human cortical brain organoids), the “expression of gene clusters involved in protein quality control (proteasome components, proteases/peptidases)” value is “promoted the expression” and the “gene expression changes induced by heat shock (RNA-seq)” value is listed as “prevented some of the gene expression changes”. Also, the “mRNA and proteins levels of CRYA (a-crystallin)” value in experiment [2] (human cortical organoids) was “increased”. In experiment [3] (setting [4]), the bursts entry is “more bursts”, the “number of active electrodes” value is listed as “higher number of active electrodes”, the “number of bursting electrodes” value is reported as “higher number of bursting electrodes” and the number of spikes entry was “higher number of spikes”. For the same compound, the “neuronal activity (number of active electrodes, bursting electrodes, network bursts)” value in experiment [3] (immediately after and at 17 hours and 43 hours after heat shock) is given as “significantly preserved; also recorded: higher neuronal activity”. Moreover, in experiment [3] (organoids after heat shock), the “levels of maltose effective in preserving neuronal activity” value is at most 5 mg/mL. The “neuronal activity (number of active electrodes, bursting electrodes, network bursts)” value in experiment [3] (steady state / pre-heat shock) is on record as “not modulated”.
